SMILES strings stand for the structures.

Broadly, the IC50 is the point on the concentration scale where inhibition reaches its midpoint. Higher therefore signals a need for much substance.

Assay [1] addresses glucosylceramide synthase (GCS) (Homo sapiens (Human), UniProt Q16739). The experiment in a line: Evaluation of inhibitory activities against GCS (enzyme reaction with A549 cell lysate, NBD C6-ceramide, HPLC fluorescence). The format is biochemical. Conditions: GCS activity in A549 cell lysate, 37° C. for 90 minutes. An outline of the steps:
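Lysate of A549 cells in 50 mM HEPES pH 7.3 incubated with test compound and NBD C6-ceramide at 37 °C for 90 min; lipids extracted with chloroform/methanol and GlcCer and ceramide peaks quantified by HPLC fluorescence. Activity from GlcCer area fraction, normalised between DMSO and ibiglustat controls.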

The next assay relates to GM1 production. The experiment in a line: cells. Type of assay: cell-based. The following applies: Homo sapiens, Jurkat, 72 h.

Chain of glucosylceramide synthase (GCS) (Q16739 whole entry, looked up): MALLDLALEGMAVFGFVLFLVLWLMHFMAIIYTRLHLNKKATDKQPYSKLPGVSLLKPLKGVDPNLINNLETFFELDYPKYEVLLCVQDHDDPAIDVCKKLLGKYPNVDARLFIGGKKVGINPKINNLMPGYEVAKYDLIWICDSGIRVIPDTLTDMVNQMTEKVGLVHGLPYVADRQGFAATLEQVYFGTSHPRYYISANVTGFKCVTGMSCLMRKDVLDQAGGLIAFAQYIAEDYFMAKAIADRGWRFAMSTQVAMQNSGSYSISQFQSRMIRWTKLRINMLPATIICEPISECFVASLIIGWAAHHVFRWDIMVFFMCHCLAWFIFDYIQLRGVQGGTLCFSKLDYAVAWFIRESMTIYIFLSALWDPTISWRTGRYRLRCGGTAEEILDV

For `O=C(NC1c2ccc(-c3ccc(OC(F)(F)F)cc3)cc2CCC12CC2)O[C@@H]1CN2CCC1CC2` (stereo partly drawn) [Example 189, (S)-quinuclidin-3-yl (6′-(4-(trifluoromethoxy)phenyl)-3′,4′-dihydro-1′H-spiro[cyclopropane-1,2′-naphthalen]-1′-yl)carbamate], the half-maximal inhibitory concentration (IC50) in assay [1] came out at 18.9 nM; in the assay on GM1 production it was 25.1 nM.
The corresponding values for `O=C(NC1c2ccc(-c3cccc(F)c3)cc2CCC12CC2)O[C@@H]1CN2CCC1CC2` (stereo partly drawn) [Example 190, (S)-quinuclidin-3-yl (6′-(3-fluorophenyl)-3′,4′-dihydro-1′H-spiro[cyclopropane-1,2′-naphthalen]-1′-yl)carbamate] are 11.9 nM and 19.9 nM.
For `O=C(NC1c2ccc(-c3cccc(Cl)c3)cc2CCC12CC2)O[C@@H]1CN2CCC1CC2` (stereo partly drawn) [Example 191, (S)-quinuclidin-3-yl (6′-(3-chlorophenyl)-3′,4′-dihydro-1′H-spiro[cyclopropane-1,2′-naphthalen]-1′-yl)carbamate] the same measures were 9.9 nM and 14.4 nM.
For `O=C(NC1c2ccc(-c3cccc(C(F)(F)F)c3)cc2CCC12CC2)O[C@@H]1CN2CCC1CC2` (stereo partly drawn) [Example 192, (S)-quinuclidin-3-yl (6′-(3-(trifluoromethyl)phenyl)-3′,4′-dihydro-1′H-spiro[cyclopropane-1,2′-naphthalen]-1′-yl)carbamate] the same measures were 12.9 nM and 14 nM.
On to `O=C(NC1c2ccc(-c3cccc(OC(F)(F)F)c3)cc2CCC12CC2)O[C@@H]1CN2CCC1CC2` (stereo partly drawn) [Example 193, (S)-quinuclidin-3-yl (6′-(3-(trifluoromethoxy)phenyl)-3′,4′-dihydro-1′H-spiro[cyclopropane-1,2′-naphthalen]-1′-yl)carbamate], for which the IC50 in assay [1] is 20.9 nM; with GM1 production, 21.6 nM.
In the case of `COCCOc1ccc(-c2ccc3c(c2)CCC2(CC2)C3NC(=O)O[C@@H]2CN3CCC2CC3)cc1` (stereo partly drawn) [Example 194, (S)-quinuclidin-3-yl (6′-(4-(2-methoxyethoxy)phenyl)-3′,4′-dihydro-1′H-spiro[cyclopropane-1,2′-naphthalen]-1′-yl)carbamate], the results for the IC50 (in assay [1]; in the assay with GM1 production) were 1.03 nM and 7.92 nM, respectively.
The corresponding values for `COCCOc1cccc(-c2ccc3c(c2)CCC2(CC2)C3NC(=O)O[C@@H]2CN3CCC2CC3)c1` (stereo partly drawn) [Example 195, (S)-quinuclidin-3-yl (6′-(3-(2-methoxyethoxy)phenyl)-3′,4′-dihydro-1′H-spiro[cyclopropane-1,2′-naphthalen]-1′-yl)carbamate] are 5.39 nM and 23.3 nM.
The corresponding values for `COCCOc1ccccc1-c1ccc2c(c1)CCC1(CC1)C2NC(=O)O[C@@H]1CN2CCC1CC2` (stereo partly drawn) [Example 196, (S)-quinuclidin-3-yl (6′-(2-(2-methoxyethoxy)phenyl)-3′,4′-dihydro-1′H-spiro[cyclopropane-1,2′-naphthalen]-1′-yl)carbamate] are 6.02 nM and 25.2 nM.
The corresponding values for `COCOc1ccc(-c2ccc3c(c2)CCC2(CC2)C3NC(=O)O[C@@H]2CN3CCC2CC3)cc1` (stereo partly drawn) [Example 197, (S)-quinuclidin-3-yl (6′-(4-(methoxymethoxy)phenyl)-3′,4′-dihydro-1′H-spiro[cyclopropane-1,2′-naphthalen]-1′-yl)carbamate] are 3.13 nM and 2.8 nM.
Take `COCOc1cccc(-c2ccc3c(c2)CCC2(CC2)C3NC(=O)O[C@@H]2CN3CCC2CC3)c1` (stereo partly drawn) [Example 198, (S)-quinuclidin-3-yl (6′-(3-(methoxymethoxy)phenyl)-3′,4′-dihydro-1′H-spiro[cyclopropane-1,2′-naphthalen]-1′-yl)carbamate]: the IC50 in assay [1] was determined as 5.17 nM; with GM1 production it was 8.68 nM.
The corresponding values for `COCOc1ccccc1-c1ccc2c(c1)CCC1(CC1)C2NC(=O)O[C@@H]1CN2CCC1CC2` (stereo partly drawn) [Example 199, (S)-quinuclidin-3-yl (6′-(2-(methoxymethoxy)phenyl)-3′,4′-dihydro-1′H-spiro[cyclopropane-1,2′-naphthalen]-1′-yl)carbamate] are 7.24 nM and 7.63 nM.
For `COc1ccc(-c2ccc3c(c2)CCC2(CC2)C3NC(=O)O[C@@H]2CN3CCC2CC3)c(Cl)c1` (stereo partly drawn) [Example 200, (S)-quinuclidin-3-yl (6′-(2-chloro-4-methoxyphenyl)-3′,4′-dihydro-1′H-spiro[cyclopropane-1,2′-naphthalen]-1′-yl)carbamate] the same measures were 8.85 nM and 46 nM.
For `COc1cc(-c2ccc3c(c2)CCC2(CC2)C3NC(=O)O[C@@H]2CN3CCC2CC3)ccc1Cl` (stereo partly drawn) [Example 201, (S)-quinuclidin-3-yl (6′-(4-chloro-3-methoxyphenyl)-3′,4′-dihydro-1′H-spiro[cyclopropane-1,2′-naphthalen]-1′-yl)carbamate] the same measures were 33.5 nM and 111 nM.
`COc1ccc(-c2ccc3c(c2)CCC2(CC2)C3NC(=O)O[C@@H]2CN3CCC2CC3)cc1F` (stereo partly drawn) [Example 202, (S)-quinuclidin-3-yl (6′-(3-fluoro-4-methoxyphenyl)-3′,4′-dihydro-1′H-spiro[cyclopropane-1,2′-naphthalen]-1′-yl)carbamate]: the concentration for half-maximal inhibition (IC50) came to 1.16 nM in assay [1] and 24.4 nM in the assay on GM1 production.
The corresponding values for `CCc1cccc(-c2ccc3c(c2)CCC2(CC2)C3NC(=O)O[C@@H]2CN3CCC2CC3)c1` (stereo partly drawn) [Example 203, (S)-quinuclidin-3-yl (6′-(3-ethylphenyl)-3′,4′-dihydro-1′H-spiro[cyclopropane-1,2′-naphthalen]-1′-yl)carbamate] are 13.5 nM and 35 nM.
For `CC(C)(C)c1cccc(-c2ccc3c(c2)CCC2(CC2)C3NC(=O)O[C@@H]2CN3CCC2CC3)c1` (stereo partly drawn) [Example 204, (S)-quinuclidin-3-yl (6′-(3-(tert-butyl)phenyl)-3′,4′-dihydro-1′H-spiro[cyclopropane-1,2′-naphthalen]-1′-yl)carbamate] the same measures were 38.4 nM and 92.9 nM.
The corresponding values for `CC(C)c1cccc(-c2ccc3c(c2)CCC2(CC2)C3NC(=O)O[C@@H]2CN3CCC2CC3)c1` (stereo partly drawn) [Example 205, (S)-quinuclidin-3-yl (6′-(3-isopropylphenyl)-3′,4′-dihydro-1′H-spiro[cyclopropane-1,2′-naphthalen]-1′-yl)carbamate] are 34.2 nM and 44.3 nM.
On to `O=C(NC1c2ccc(-c3cccc(C(F)F)c3)cc2CCC12CC2)O[C@@H]1CN2CCC1CC2` (stereo partly drawn) [Example 206, (S)-quinuclidin-3-yl (6′-(3-(difluoromethyl)phenyl)-3′,4′-dihydro-1′H-spiro[cyclopropane-1,2′-naphthalen]-1′-yl)carbamate], for which the results for the half-inhibitory concentration (IC50) (in assay [1]; in the assay with GM1 production) were 10.2 nM and 15.2 nM, respectively.
Turning to `CN(C)c1cccc(-c2ccc3c(c2)CCC2(CC2)C3NC(=O)O[C@@H]2CN3CCC2CC3)c1` (stereo partly drawn) [Example 207, (S)-quinuclidin-3-yl (6′-(3-(dimethylamino)phenyl)-3′,4′-dihydro-1′H-spiro[cyclopropane-1,2′-naphthalen]-1′-yl)carbamate], the IC50 in assay [1] amounted to 23.2 nM; in the assay with GM1 production it was 57.3 nM.
In the case of `CC(C)Oc1cccc(-c2ccc3c(c2)CCC2(CC2)C3NC(=O)O[C@@H]2CN3CCC2CC3)c1` (stereo partly drawn) [Example 208, (S)-quinuclidin-3-yl (6′-(3-isopropoxyphenyl)-3′,4′-dihydro-1′H-spiro[cyclopropane-1,2′-naphthalen]-1′-yl)carbamate], the IC50 was found to be 21.2 nM in assay [1] and 47.7 nM in the assay with GM1 production.

The values are drawn from patent US12338237B2, “Derivatives having 1,2,3,4-tetrahydronaphthalene moiety or pharmaceutically acceptable salt thereof and pharmaceutical compositions comprising the same” (YUHAN CORPORATION, priority 2019, dated 2025).
